Laboratory results from article PMC9543091, “A bacterial chemoreceptor that mediates chemotaxis to two different plant hormones” (Environmental Microbiology, 2022).

Tests used:
PcpI [1] = biological target: T1, PcpI (Pseudomonas putida, UniProt A0A4D6XHR0); assay: isothermal titration calorimetry; DSF Tm shift […]°C; assay type: binding
T1 construct: gene E6B08_28110; LBD (amino acids 38–174)
T1 sequence (A0A4D6XHR0 38-174): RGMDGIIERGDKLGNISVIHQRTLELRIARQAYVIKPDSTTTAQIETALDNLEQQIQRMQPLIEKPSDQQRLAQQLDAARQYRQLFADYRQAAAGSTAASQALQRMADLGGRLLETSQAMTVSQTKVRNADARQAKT
Source text: Exothermic heats were observed that decreased as protein saturation progressed

[2] = biological target: T2, E6B08_RS28125 (solute binding protein); assay: isothermal titration calorimetry (and DSF); parameters: species or system Pseudomonas putida
T2 construct: recombinant from pET28b(+), without the predicted signal peptide

PcpI [3] = biological target: T1, PcpI; assay: isothermal titration calorimetry; assay type: binding

SMILES	Kd [2] [µM]	further results
O=C(O)c1ccccc1O [salicylate]		Kd (PcpI [1]): 826 ± 34 µM
N[C@@H](Cc1c[nH]cn1)C(=O)O [L-His]	3.3 ± 0.3	
O=C(O)c1ccccc1 [benzoate]		Kd (PcpI [3]): 171 ± 14 µM
NCCC[C@H](N)C(=O)O [L-ornithine]	0.9 ± 0.1	
Cc1cccc(C(=O)O)c1 [3-methylbenzoate]		Kd (PcpI [3]; read-out: Kd): 91 ± 8 µM
N=C(N)NCCC[C@H](N)C(=O)O [L-Arg]	29.5 ± 3	
